One data set deals with rosacea. Conditions: cited from earlier work.
The subject of the next data set is patient with rosacea. The data set is described as follows: Application b.i.d. of other Delphinidin topical formulations to the face of a rosacea patient (Examples 11-13, present tense). Format: in vivo, human. From the text:
A topical gel is made with delphinidin 3,5-O-diglucoside 7% (w/w) in a standard cosmetic disappearing gel base. Application b.i.d. to the face of a patient with lupus-related rosacea, for at least about one month alleviates lupus-related skin inflammation and the patient maintains normal, healthy skin. A topical cream is made with delphinidin 6% (w/w) in a standard cosmetic lipophilic cream base. […] A topical cream is made with delphinidin 3-O-sambubioside 5-O-glucoside 3% (w/w) in a standard cosmetic disappearing cream base. Application b.i.d. to the face of a patient with papulopustular rosacea with transient, central face pustules for two months reduces central facial erythema and eliminates transient central face pustules.

Where [1] appears, read: Example 13, 3% (w/w) disappearing cream, papulopustular rosacea, two months.

This is an account of results in patent US20220008447A1, “Rosacea Treatment Method” (priority 2019, published 2022).

As for Ivermectin, in the data set with rosacea (prior-art treatment), the “efficacy compared with placebo and metronidazole” value is “more effective than placebo and slightly more effective than metronidazole”.

As to `OC[C@H]1O[C@@H](Oc2cc(O)cc3[o+]c(-c4cc(O)c(O)c(O)c4)c(O[C@@H]4O[C@H](CO)[C@@H](O)[C@H](O)[C@H]4O[C@@H]4OC[C@@H](O)[C@H](O)[C@H]4O)cc23)[C@H](O)[C@@H](O)[C@@H]1O` [delphinidin 3-O-sambubioside 5-O-glucoside], in the data set on patient with rosacea (setting [1]), the central facial erythema entry was “reduces” and the “transient central face pustules” value was “eliminates”.

Turning to `CC[C@H]1OC(=O)[C@H](C)[C@@H](O[C@H]2C[C@@](C)(OC)[C@@H](O)[C@H](C)O2)[C@H](C)[C@@H](O[C@@H]2O[C@H](C)C[C@H](N(C)C)[C@H]2O)[C@](C)(O)C[C@@H](C)CN(C)[C@H](C)[C@@H](O)[C@]1(C)O` [Azithromycin], the “efficacy compared with 100 mg doxycycline” value in the data set with rosacea (only one study) is reported as “may be as effective as 100 mg doxycycline”.

As to `C[C@H]1c2cccc(O)c2C(=O)C2=C(O)[C@]3(O)C(=O)C(C(N)=O)=C(O)[C@@H](N(C)C)[C@@H]3[C@@H](O)[C@@H]21` [doxycycline], the “side effects of low dose compared with 100 mg” value with rosacea (low dose, 40 mg) was “much fewer side effects of diarrhea and nausea”.

As for `OC[C@H]1O[C@@H](Oc2cc3c(O[C@@H]4O[C@H](CO)[C@@H](O)[C@H](O)[C@H]4O)cc(O)cc3[o+]c2-c2cc(O)c(O)c(O)c2)[C@H](O)[C@@H](O)[C@@H]1O` [delphinidin 3,5-O-diglucoside], in the data set on patient with rosacea (Example 11, 7% (w/w) topical gel, lupus-related rosacea, at least about one month), the lupus-related skin inflammation result is reported as “alleviates”.

`Brc1c(NC2=NCCN2)ccc2nccnc12` [brimonidine]: the “duration of effect on redness after being applied” value in the data set on rosacea (prior-art treatment) is recorded as “up to 12 hours”.

Regarding `O=C(O)CCCCCCCC(=O)O` [azelaic acid], in the data set with rosacea (prior-art treatment), the reducing rosacea symptoms result was “effective and safe”; the side effects entry is “caused mild burning, stinging or irritation”; the “time until improvements appear” value is listed as “three to six”.

With `Oc1cc(O)c2cc(O)c(-c3cc(O)c(O)c(O)c3)[o+]c2c1` [delphinidin, 2-(3,4,5-trihydroxyphenyl) chromenylium-3,5,7-triol], in the data set on patient with rosacea (Example 12, 6% (w/w) lipophilic cream, erythematotelangiectatic rosacea, two weeks), the “flushing, persistent central facial erythema and telangiectasia” value is reported as “measurably reduces”.

For `Cc1ncc([N+](=O)[O-])n1CCO` [metronidazole], in the data set on rosacea (prior-art treatment), the reducing rosacea symptoms entry was “effective and safe”; the side effects result is “very few people experienced mild itching, skin irritation and dry skin”; the “time until improvements appear” value is “three to six”.

In the case of `CC1=C(/C=C/C(C)=C/C=C/C(C)=C\C(=O)O)C(C)(C)CCC1` [isotretinoin], in the data set with rosacea (low dose, 0.3 mg/kg), the “efficacy compared with doxycycline, pimples and pustules” value is reported as “slightly more effective than 50-100 mg doxycycline”.
